These are literature values, as cited in patent US20230174569A1, “PROCESS PER PREPARING (3a,5a)-20-OXOPREGNAN-3-YL GLYCYL-L-VALINATE HYDROCHLORIDE” ([…] S.R.L., priority 2021, published 2023).

The conditions of series [1]: compared with Brexanolone.
The conditions of series [2]: compared with Brexanolone. The source holds these as a separate data set.

Structures can show the parent of a compound that is named as a salt.

`CC(=O)[C@H]1CC[C@H]2[C@@H]3CC[C@H]4C[C@H](OC(=O)[C@@H](NC(=O)CN)C(C)C)CC[C@]4(C)[C@H]3CC[C@]12C` [compound I, (3α,5α)-20-oxopregnan-3-yl glycyl-L-valinate hydrochloride]: in series [1], the water solubility result is listed as “better profile than Brexanolone”. For the same compound, the “storage stability in aqueous solutions” value in series [2] is “better profile than Brexanolone”.
